Assay results published in patent US20260158139A1, “CARD9 VARIANT POLYPEPTIDE AND ANTIBODIES DIRECTED THERETO” (The Broad Institute, Inc., priority 2023, published 2026).

B1: phospho-specific CARD9 S104 antibody: mouse monoclonal IgG1 antibody to phosphorylated S104 of CARD9; clone 4F9.H5 used in the study; VH/VL in Table 1 (antibody, V domains shown)
VH: EVQLQQSGPELVKPGASMKMSCKASGYSFTGQTMHWVKQTHGKNLEWIGLINPYNGGTKYNQIFTGKATLTVDKSSSSAYMELLSLTSEDSAVYFCAIWDYVLDYWGQGTSVTVSSAKTTPPSVYPLAPGSAAQTNSMVTLGCLVK
VL: DVVMTQTPLSLPVSLGDQASISCRSSQSLLHSNGKTYLHWYLQKPGQSPKLLIYKVSNRFSGVPDRFSGSGSGTDFTLKISRVEAEDLGVYFCSQSTHIPPTFGGGTKLEIKRADAAPTVSIFPPSSEQLTSGGASVVCF

Columns and labels:
[1] = molecular target: T1, PKCδ (Mus musculus, UniProt P28867); test: CARD9 immunoprecipitation and western blot for pS104-CARD9 in BMDCs stimulated with HKCA; assay type: cell-based; details: 10 uM, added 1 h before stimulation; BMDCs from WT mice stimulated with HKCA (MOI 1:10)
T1 construct: endogenous in cells; host or cells: mouse bone-marrow-derived dendritic cells (BMDCs) from WT mice
T1 sequence (P28867 whole entry): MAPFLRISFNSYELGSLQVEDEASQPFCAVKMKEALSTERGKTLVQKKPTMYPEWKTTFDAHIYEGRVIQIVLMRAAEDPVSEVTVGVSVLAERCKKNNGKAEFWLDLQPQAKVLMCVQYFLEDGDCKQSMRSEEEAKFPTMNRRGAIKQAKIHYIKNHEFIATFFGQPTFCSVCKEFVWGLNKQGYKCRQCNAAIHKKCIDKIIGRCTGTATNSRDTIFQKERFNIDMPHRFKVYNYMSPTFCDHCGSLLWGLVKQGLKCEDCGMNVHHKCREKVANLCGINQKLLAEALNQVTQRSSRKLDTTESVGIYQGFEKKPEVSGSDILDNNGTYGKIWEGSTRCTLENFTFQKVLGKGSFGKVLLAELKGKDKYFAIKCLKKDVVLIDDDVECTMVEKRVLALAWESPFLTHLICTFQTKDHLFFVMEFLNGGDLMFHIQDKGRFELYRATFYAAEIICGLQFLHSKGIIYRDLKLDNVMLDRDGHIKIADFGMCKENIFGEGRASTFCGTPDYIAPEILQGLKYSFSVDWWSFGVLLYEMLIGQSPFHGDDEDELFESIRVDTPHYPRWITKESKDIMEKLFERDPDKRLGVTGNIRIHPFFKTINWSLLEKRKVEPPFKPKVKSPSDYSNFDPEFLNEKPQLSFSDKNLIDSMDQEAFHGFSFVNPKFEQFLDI
Protocol: FIGS. 3A-3H provide graphs and pictures showing that CARD9 R101 functions as a signaling switch activated by S104 phosphorylation. FIG. 3A, BMDCs expressing Cas9 were transduced with guides for the corresponding genes on day 2 and selected with puromycin. On day 9 cells were stimulated with 100 ug/ml WGP O/N and IL-6 levels in supernatant were measured with ELISA. FIG. 3B, BMDCs expressing Cas9 were transduced with guides for the corresponding genes on day 2 and selected with puromycin. On day 9 cells were stimulated with HKCA (MOI 1:10), HKTR (1:10) or LPS (10 ng/ml) for 30 min. p65 nuclear translocation was measured using fluorescence imaging. The bars in the graph are shown in groups of 6 (from left to right, EGFP, EGFP, PAK2, PAK2, PKCd, PKCd) for each different condition (i.e., untreated, HKCA, HKTR, LPS). FIG. 3C, CARD9 FL, CARD9 R101C or CARD9 S104N were overexpressed in HEK 293T cells. […] Samples were analyzed by WB with the indicated antibodies. […] Samples were analyzed by WB with the indicated antibodies. FIG. 3F, Normalized fluorescence polarization representing filament formation between different CARD9 2-152 variants and Bcl10, average of quadruplicates. […] FIG. 3H, Expression of CARD9 in the lysates from panel g determined by western blot (WB) with the indicated antibodies. […]

[2] = tested on: phosphorylated S104 (pS104) of CARD9, peptides pS104, pS104/R101C, S104; test: ELISA of hybridoma clones against CARD9 peptides (antibody specificity); assay type: binding; details: pS104 in the context of either R101 or C101
From the text: FIGS. 9A-9J provide schematics, pictures, a table, graphs showing that CARD9 activation through S104 phosphorylation is impaired by the R101C variant implicated in fungal disease. FIG. 9A, schematic representation of CRISPR KI into CARD9 allele to obtain endogenous CARD9 R101C mutation. Figure discloses SEQ ID NOS 69-71, respectively, in order of appearance. FIG. 9B, representative sequencing result highlighting the presence of mutated base pair (arrow). Figure discloses SEQ ID NOS 72-74, respectively, in order of appearance. FIG. 9C, WB from BMDCs isolated from WT or CARD9 R101C mutant mice. FIG. 9D, WB from splenic CD11c positive cells isolated from WT or CARD9 R101C mutant mice. FIG. 9E, table summarizing hybridoma screening results for binding affinity of different phospho-S104 specific antibodies. ELISA results are shown as values of absorbance at 490 nm, representing antibody reactivity towards either pS104, or pS104/R101C, or S104 peptides. Antibody used in the study is row 6 (i.e., 4F9.H5). FIG. 9F, IL-6 concentration in supernatants from BMDCs from WT, CARD9−/− or CARD9R101C mutant treated with indicated concentrations of WGP, HKCA, HKTR or LPS (10 ng/ml) for 24h. (n=3 mice per condition). […]

Row | Molecule | CARD9 S104 phosphorylation [1] | recognition of S104 phosphorylation (antibody specificity by ELISA against different peptides) [2]
1 | CN1CCN(c2nc(C3=C(c4c[nH]c5ccccc45)C(=O)NC3=O)c3ccccc3n2)CC1 [Sotrastaurin] | inhibition of CARD9 S104 phosphorylation | 
2 | B1 |  | recognizes S104 phosphorylation independently of R101
